Test results reported in patent publication US20240041827A1, “COMPOSITIONS FOR THE TREATMENT OF FAT RELATED CONDITIONS AND DISORDERS” (priority 2020, published 2024).

Assay: in vitro
Experimental: Human visceral preadipocytes were seeded in 96-well white clear bottom plates at 10,000 cells per well in 100 μl pre-adipocyte medium and incubated overnight at 37° C. 5% CO2. On the following day, adipogenic differentiation was induced by addition of 100 μl/well differentiation medium and incubation continued for 5 days. Adipogenic differentiation was verified by microscopic evaluation, addition of adipored reagents and fluorescent measurement at Ex485 nm/Em572 nm. […] Staurosporine (1 μM) and 0.2% DMSO were used as controls. Plates were incubated at 37° C. 5% CO2 for 2, 6 and 24 hours. Following incubation, cytotoxicity was measured using Cell Titer Glo 2.0 (Promega).
Test Item RZL-12 (1-300 μM) was prepared on the day of the testing as 150 mM stock solutions in DMSO. The 150 mM represents a 500×stock of the highest desired tested concentration. The 150 mM stock solution was first serially diluted in DMSO to acquire 500×stock solutions for each of the RZL-012 concentrations. The 500×stock solutions were then diluted 1:25 in medium to acquire 20×intermediate stock solutions. Finally, the 20×intermediate stock solutions were further diluted 1:20 in the assay (on the plate) that included seeded cells.
The 600 μM represents a 20× stock of the highest desired tested concentration. […] Finally, the 20×intermediate stock solutions were further diluted 1:20 in the assay plate that included seeded cells.
Human visceral pre-adipocytes (HPrAD-vis): HPrAD-vis cells (Lonza cat #PT-5005) were thawed at 37° C. and transferred into 50 ml tubes containing pre-adipocytes PGM-2 growth medium (PBM-2, 10% FBS, 1-glutamine, GA-1000). Cells were centrifuged at 300 g for 10 minutes, the supernatant was removed (Leaving about 1 ml of wash medium for not disrupting the cells) and 2 ml fresh PGM-2 medium was added. After resuspension, cells were counted and seeded in T-75 and T25 flasks at a density of 9,000 cells/cm^2 ([…], 225,000 cells/T25 flask). Medium was changed every 2-3 days until reached confluence of 70%.
Cells were sub-cultured only once, as soon as they reached 70% confluence. For this purpose, the culture medium of each flask was removed and cells were washed once with 5 ml PBS. The flask was shaken to ensure that the entire surface was covered and the PBS was removed. Then, 3 ml/T75 flask or 1 ml/T25 flask of fresh dedicated Trypsin/EDTA solution (from Lonza) was added and the flasks were incubated for 3-4 minutes at RT until ˜90% cells were detached. The Trypsin/EDTA solution was then neutralized by addition of 6 ml/T75 flask or 3 ml/T25 flask of full PGM-2 growth medium. Cells were collected in 50 ml tubes and centrifuged 10 minutes at 300 g. The supernatant was removed and the cells were resuspended in 3 ml fresh medium. Cells were then counted using a haemacytometer slide after being diluted 1:2 in trypan blue (SIGMA). For sub-culturing, cells were seeded in new T75 flasks at a density of 9,000 cells/cm^2 containing 15 ml fresh growth medium. Alternatively, the cells were seeded in 96-well culture plates at a density of 10,000 cells/well for the cell treatments.
HPrAD-vis cells: HPrAD-vis passaged once were seeded in 96-well plates as described above (10000cells/well in 100 μl medium) and allowed to settle overnight at 37° C., 5% CO2. Following day, adipogenic differentiation was induced by addition of 100 μl/well differentiation medium and incubated for 5 days. Adipogenic differentiation was verified by microscopic evaluation, addition of adipored reagents and fluorescent measurement at Ex485 nm/Em572 nm. In the morning of day 6, test and reference items were prepared as described above. Cells' medium was replaced with 90 μl fresh differentiation medium. […] Staurosporine (1 μM) and 0.2% DMSO were used as controls. Plates were incubated at 37° C. 5% CO2 for 2, 6 and 24 hours. Following incubation, cell viability was determined using the CellTiter-Gg® viability reagent (Promega) with reading of plates for luminescence. […]

## C[N+](C)(C)CCCCCn1c2ccc(Br)cc2c2cc(Br)ccc21.[Cl-] [RZL-012, 5-(3,6-dibromo-9H-carbazol-9-yl)-N,N,N-trimethylpentan-1-aminium chloride]
  IC50: ~30 µM
